# Laboratory results taken from ChEMBL document CHEMBL1201862, “PubChem BioAssay data set” (2004).
#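 Results reflect a 48-hour exposure of cells in 96-well plates to compound at five concentrations. Here, GI50 denotes the concentration required for 50% inhibition of growth.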 Activity calls are given as the source filed them. No stated cut-off is given here; in the data, active = GI50 up to about 1.1 µM and inactive = higher.
# What was measured:
# Experiment in all cases: inhibition of tumour cell growth, NCI panel, 48 h
# RPMI-8226 = tested on: RPMI-8226
# SW-620 = tested on: SW-620
# OVCAR-4 = tested on: OVCAR-4
# SK-OV-3 = tested on: SK-OV-3
# UACC-257 = tested on: UACC-257
# HT-29 = tested on: HT-29
# SN12C = tested on: SN12C
# OVCAR-3 = tested on: OVCAR-3
# SF-295 = tested on: SF-295
# SF-268 = tested on: SF-268
# SK-MEL-5 = tested on: SK-MEL-5
# CAKI-1 = tested on: CAKI-1
# SR = tested on: SR
# U-251 = tested on: U-251
# HCT-15 = tested on: HCT-15
# SK-MEL-2 = tested on: SK-MEL-2
Compound,GI50 (RPMI-8226),GI50 (SW-620),GI50 (OVCAR-4),GI50 (SK-OV-3),GI50 (UACC-257),GI50 (HT-29),GI50 (SN12C),GI50 (OVCAR-3),GI50 (SF-295),GI50 (SF-268),GI50 (SK-MEL-5),GI50 (CAKI-1),GI50 (SR),GI50 (U-251),GI50 (HCT-15),GI50 (SK-MEL-2)
CCOc1cccc2ccc[n+](CC)c12,> 100 µM (inactive),81.3 µM (inactive),55.1 µM (inactive),> 100 µM (inactive),57.9 µM (inactive),47.3 µM (inactive),53.1 µM (inactive),56.1 µM (inactive),45.7 µM (inactive),12.2 µM (inactive),45.5 µM (inactive),,,,,
O=C1N(c2ccccc2)C(=O)C2(SC=NN2Cc2ccccc2)N1c1ccccc1 (stereo not given),,> 100 µM (inactive),> 100 µM (inactive),> 100 µM (inactive),> 100 µM (inactive),> 100 µM (inactive),> 100 µM (inactive),> 100 µM (inactive),> 100 µM (inactive),> 100 µM (inactive),> 100 µM (inactive),> 100 µM (inactive),92.7 µM (inactive),> 100 µM (inactive),,
BrC1=CC=C2NC=CC3=CC=NC1C32 (stereo not given),11.4 µM (inactive),8.95 µM (inactive),27.7 µM (inactive),25.1 µM (inactive),33.5 µM (inactive),14.9 µM (inactive),18.6 µM (inactive),22 µM (inactive),8.36 µM (inactive),15.5 µM (inactive),20 µM (inactive),,4.57 µM (inactive),7.67 µM (inactive),18.9 µM,18.9 µM (inactive)
CNS(=O)(=O)NN(C)S(=O)(=O)c1ccc(OC)cc1,> 100 µM (inactive),> 100 µM (inactive),> 100 µM (inactive),,> 100 µM (inactive),> 100 µM (inactive),> 100 µM (inactive),,> 100 µM (inactive),> 100 µM (inactive),> 100 µM (inactive),> 100 µM (inactive),> 100 µM (inactive),> 100 µM (inactive),> 100 µM,> 100 µM (inactive)
CC1(C)CC(=O)C/C(=N/c2ccc([N+](=O)[O-])cc2)C1,53.5 µM (inactive),,,> 100 µM (inactive),> 100 µM (inactive),87.3 µM (inactive),71.8 µM (inactive),76.4 µM (inactive),> 100 µM (inactive),> 100 µM (inactive),> 100 µM (inactive),,57 µM (inactive),16.3 µM (inactive),64.3 µM,> 100 µM (inactive)
N#Cc1cn(-c2c3ccccc3nc3ccccc23)c(=O)[nH]c1=O,14 µM (inactive),5.01 µM (inactive),5.14 µM (inactive),3.6 µM (inactive),4.86 µM (inactive),4.27 µM (inactive),,8.02 µM (inactive),5.83 µM (inactive),4.74 µM (inactive),,5.75 µM (inactive),3.31 µM (inactive),18 µM (inactive),5.96 µM,10.8 µM (inactive)
COc1cc2c(oc(=O)c3c4occc4cc(OC)c23)c2cccc(O)c12,> 100 µM (inactive),> 100 µM (inactive),> 100 µM (inactive),> 100 µM (inactive),> 100 µM (inactive),> 100 µM (inactive),> 100 µM (inactive),> 100 µM (inactive),> 100 µM (inactive),> 100 µM (inactive),> 100 µM (inactive),> 100 µM (inactive),,> 100 µM (inactive),> 100 µM,
CC#C[I+]c1ccccc1,,,17.3 µM (inactive),30.3 µM (inactive),20.9 µM (inactive),17.3 µM (inactive),12.3 µM (inactive),17.5 µM (inactive),69.3 µM (inactive),19.1 µM (inactive),23.4 µM (inactive),14.1 µM (inactive),15.1 µM (inactive),15 µM (inactive),,28.1 µM (inactive)
CC(=O)c1cccc(NCn2nnc3ccccc32)c1,96.8 µM (inactive),> 100 µM (inactive),> 100 µM (inactive),> 100 µM (inactive),> 100 µM (inactive),> 100 µM (inactive),> 100 µM (inactive),> 100 µM (inactive),> 100 µM (inactive),> 100 µM (inactive),,,79.4 µM (inactive),> 100 µM (inactive),> 100 µM,> 100 µM (inactive)
CC(C)NC1CCCCC2c3cc(F)ccc3[C@]12O (stereo not given in full),> 100 µM (inactive),> 100 µM (inactive),> 100 µM (inactive),> 100 µM (inactive),> 100 µM (inactive),> 100 µM (inactive),> 100 µM (inactive),> 100 µM (inactive),> 100 µM (inactive),> 100 µM (inactive),> 100 µM (inactive),> 100 µM (inactive),,> 100 µM (inactive),> 100 µM,> 100 µM (inactive)
COc1ccc2c3c1C(=O)CCC3CO2 (stereo not given),> 100 µM (inactive),> 100 µM (inactive),> 100 µM (inactive),> 100 µM (inactive),> 100 µM (inactive),> 100 µM (inactive),> 100 µM (inactive),> 100 µM (inactive),> 100 µM (inactive),> 100 µM (inactive),> 100 µM (inactive),> 100 µM (inactive),,> 100 µM (inactive),> 100 µM,> 100 µM (inactive)
CC1(C)O[C@@H](CCl)C[C@@H](C#N)O1,> 100 µM (inactive),> 100 µM (inactive),> 100 µM (inactive),> 100 µM (inactive),> 100 µM (inactive),> 100 µM (inactive),,> 100 µM (inactive),> 100 µM (inactive),> 100 µM (inactive),> 100 µM (inactive),> 100 µM (inactive),> 100 µM (inactive),> 100 µM (inactive),,> 100 µM (inactive)
Cc1cc(=O)c2c(O)cc3c(c2o1)CC=C(COC1OC(COC2OC(CO)C(O)C(O)C2O)C(O)C(O)C1O)CO3 (stereo not given),,> 100 µM (inactive),> 100 µM (inactive),> 100 µM (inactive),> 100 µM (inactive),,> 100 µM (inactive),> 100 µM (inactive),> 100 µM (inactive),> 100 µM (inactive),> 100 µM (inactive),> 100 µM (inactive),> 100 µM (inactive),> 100 µM (inactive),> 100 µM,> 100 µM (inactive)
N#CC(c1ccc(Cl)cc1)c1cccc(C(C#N)c2ccc(Cl)cc2)n1 (stereo not given),82 µM (inactive),46 µM (inactive),32.6 µM (inactive),47.4 µM (inactive),14.1 µM (inactive),19.1 µM (inactive),59.3 µM (inactive),15.9 µM (inactive),8.43 µM (inactive),27 µM (inactive),,16.9 µM (inactive),9.31 µM (inactive),18.1 µM (inactive),,13.7 µM (inactive)
COC(=O)C1CC(C(=O)OC)c2nc3cc([N+](=O)[O-])ccc3nc21 (stereo not given),26.1 µM (inactive),89.9 µM (inactive),> 100 µM (inactive),> 94 µM (inactive),55.6 µM (inactive),51.3 µM (inactive),> 79.3 µM (inactive),33.1 µM (inactive),25.5 µM (inactive),26.4 µM (inactive),58.7 µM (inactive),59.8 µM (inactive),,98.2 µM (inactive),17.8 µM,> 100 µM (inactive)
Cc1cc2c(=O)cc(-c3ccc(F)cc3)oc2c(C(=O)O)c1C,> 100 µM (inactive),> 100 µM (inactive),> 100 µM (inactive),> 100 µM (inactive),> 100 µM (inactive),> 100 µM (inactive),> 100 µM (inactive),> 100 µM (inactive),> 100 µM (inactive),> 100 µM (inactive),> 100 µM (inactive),> 100 µM (inactive),,> 100 µM (inactive),> 100 µM,> 100 µM (inactive)
C[C@@H](c1ccccc1)N(CC#N)C1CCC[C@H]1O (stereo not given in full),> 100 µM (inactive),> 100 µM (inactive),> 100 µM (inactive),> 100 µM (inactive),> 100 µM (inactive),> 100 µM (inactive),> 100 µM (inactive),> 100 µM (inactive),> 100 µM (inactive),> 100 µM (inactive),> 100 µM (inactive),,,> 100 µM (inactive),> 100 µM,> 100 µM (inactive)
C[C@@]12CCCC(=O)N1[C@@H](CO)C(c1ccccc1)O2 (stereo not given in full),> 100 µM (inactive),> 100 µM (inactive),> 100 µM (inactive),,> 100 µM (inactive),> 100 µM (inactive),> 100 µM (inactive),> 100 µM (inactive),> 100 µM (inactive),> 100 µM (inactive),> 100 µM (inactive),> 100 µM (inactive),,> 100 µM (inactive),> 100 µM,> 100 µM (inactive)
CC1(C)C(=NN=C(N)N)C(C)(C)C1=NN=C(N)N,> 100 µM (inactive),> 100 µM (inactive),> 100 µM (inactive),> 100 µM (inactive),> 100 µM (inactive),> 100 µM (inactive),> 100 µM (inactive),> 100 µM (inactive),> 100 µM (inactive),> 100 µM (inactive),> 100 µM (inactive),> 100 µM (inactive),> 100 µM (inactive),> 100 µM (inactive),> 100 µM,
CN1C2C=C(c3ccccc3)CC1CC2 (stereo not given),> 100 µM (inactive),> 100 µM (inactive),,> 100 µM (inactive),> 100 µM (inactive),> 100 µM (inactive),> 100 µM (inactive),> 100 µM (inactive),> 100 µM (inactive),> 100 µM (inactive),> 100 µM (inactive),,> 100 µM (inactive),> 100 µM (inactive),> 100 µM,> 100 µM (inactive)
